{"source": "patent US20150291933A1", "about": "“CELL DIFFERENTIATION” (THE UNIVERSITY OF MANCHESTER, priority 2012, published 2015)", "key": {"Human iPS cells (hiPSCs) [1]": {"tested_on": "Human iPS cells (hiPSCs)", "experiment": "Effect of E-cadherin inhibitors on cell-cell contact in pluripotent hiPSCs (phase contrast)", "assay_type": "cell-based", "settings": "48 h in MTesR complete media, adherent feeder free", "experimental": "Human iPS cells (hiPSCs) were grown under adherent feeder-free culture conditions. All cells were propagated for a minimum of two passages as feeder-free cultures to exclude unwanted residual mouse fibroblast feeder cells. Cells were cultured in MTesR complete medium (Stem Cell Technologies). Cells were cultured on Matrigel™- (BD Biosciences 356234) coated tissue culture grade plates. Matrigel-treated plates were coated with pre-diluted Matrigel™ (1:100 in DMEM/F12 media) and incubated at room temperature prior to use. Media was replenished every 24 h and cells were passaged upon confluency. Cells were dissociated using trypsin-EDTA.\nHuman iPS cells were grown under standard adherent feeder-free culture conditions prior to induction of differentiation."}, "Human iPS cells (hiPSCs) [2]": {"tested_on": "Human iPS cells (hiPSCs)", "experiment": "Neural differentiation of hiPSCs using E-cadherin inhibitors, Nestin immunofluorescence", "assay_type": "cell-based", "settings": "day 7; for number of Nestin positive cells: treated daily, peptides 1 mM, antibody 2 μg/ml", "experimental": "Human iPSCs were differentiated as previously described. Peptides A, B or C were supplemented to the media at a final concentration of 1 mM and E-cadherin neutralising antibody supplemented to the media at 2 μg/ml daily for 6-7 days. The equivalent volume of water was added to cultures as a vehicle control.\nAll other methodology was performed as outlined above in connection with neural differentiation and characterisation of resultant neural progenitor cells (NPCs). […] Accordingly, supplementation in this manner may be a preferred embodiment of methods of the invention as practiced upon pluripotent stem cells such as iPSCs.\nTo initiate differentiation confluent undifferentiated cells were dissociated and seeded at a low density onto gelatin coated wells in differentiation medium supplemented with/without E-cadherin-inhibitors for 7 days. To identify the phenotype of these cells, cultures were harvested at day 7 and immunofluorescent analysis of the neural progenitor cell marker Nestin was performed (FIG. 10)."}, "human E-cadherin": {"biological_target": "T1, human E-cadherin (human, UniProt P12830 155-882)", "T1 sequence": "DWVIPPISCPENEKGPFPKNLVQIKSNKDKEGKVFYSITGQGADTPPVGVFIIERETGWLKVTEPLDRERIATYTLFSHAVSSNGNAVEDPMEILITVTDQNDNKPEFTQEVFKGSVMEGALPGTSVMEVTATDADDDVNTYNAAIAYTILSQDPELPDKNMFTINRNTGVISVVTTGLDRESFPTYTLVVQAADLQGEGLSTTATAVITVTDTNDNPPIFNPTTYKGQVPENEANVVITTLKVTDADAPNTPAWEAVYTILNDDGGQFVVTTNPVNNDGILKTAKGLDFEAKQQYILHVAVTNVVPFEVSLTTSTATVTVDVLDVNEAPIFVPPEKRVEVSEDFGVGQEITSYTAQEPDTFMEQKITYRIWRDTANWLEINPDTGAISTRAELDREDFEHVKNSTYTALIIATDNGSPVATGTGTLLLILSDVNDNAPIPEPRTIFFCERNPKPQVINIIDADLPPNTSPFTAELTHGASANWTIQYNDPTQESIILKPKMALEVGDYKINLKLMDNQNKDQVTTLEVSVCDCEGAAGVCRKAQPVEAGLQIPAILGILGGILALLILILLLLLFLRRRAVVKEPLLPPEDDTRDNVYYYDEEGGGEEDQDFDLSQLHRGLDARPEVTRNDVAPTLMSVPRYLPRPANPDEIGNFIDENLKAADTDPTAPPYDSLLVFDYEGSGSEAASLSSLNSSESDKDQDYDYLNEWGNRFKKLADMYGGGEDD", "experiment": "cell-based or functional assay"}, "[3]": {"tested_on": "Human ES cells (HUES7, H9, MAN7)", "experiment": "Differentiation of human ES cells towards neural precursor cells in adherent culture, immunofluorescence of neural precursor markers", "assay_type": "cell-based", "experimental": "Human ES cell lines, HUES7 (passage 39-44), H9 (passage 50-55) and MAN7 (passage 18-21) were grown under adherent feeder-free culture conditions prior to induction of differentiation. Cells were cultured in STEMPRO® (Invitrogen—complete medium) which comprises; DMEM/F-12+GlutaMAX, 8 ng/ml FGF-basic factor (Peprotec), STEMPRO® hESC SFM Growth Supplement (1×), 1.8% BSA, and 0.1 Mm 2-mercaptoethanol. Cells were cultured on either Matrigel™- (BD Biosciences 356234) or Geltrex™- (Invitrogen 12760-021) coated tissue culture grade plates. Matrigel-treated plates were coated with pre-diluted Matrigel™ (1:100 in DMEM/F12 media) and incubated at room temperature prior to use. Geltrex™-coated plates were coated with pre-diluted Geltrex™ (1:29 in DMEM/F12 media) and incubated for 1 h at 37° C. prior to use. Media was replenished every 24 h and cells were passaged upon confluency. All cells were propagated for a minimum of two passages as feeder-free cultures to exclude unwanted residual mouse fibroblast feeder cells. Cells were dissociated either using trypsin-EDTA (Sigma) or Collagenase IV (Sigma-1 mg/ml final concentration) dependent on the ES cell line used.\nConfluent undifferentiated cells were dissociated and seeded at a low density (2.0E5 cells/962 mm2) onto 0.1% w/v gelatin coated wells in differentiation medium alone (DMEM/F-12+GlutaMAX (Invitrogen), 10% Knockout Serum Replacement (KSR) (Invitrogen), Penicillin/Streptomycin (1×) (PAA) for 24 hours prior to media supplementation with an E-cadherin inhibiting peptide (H-Ser-Trp-Glu-Leu-Tyr-Tyr-Pro-Leu-Arg-Ala-Asn-Leu-NH2, >95% purity, acetate salt background) (Bachem) as published in Devemy & Blashuk (2009). Peptide was reconstituted at 30 mg/ml in sterile ddH2O (20 mM stock concentration), with a working concentration 500 μM for inhibition of human E-cadherin. Media (and peptide) were replenished every 2 days for 6-7 days. After this time peptide is no longer necessary. […]\nCells were fixed in 4% w/v paraformaldehyde and stained in situ (Mohamet et al, 2010). […] The cells were viewed on a Leica DM500 fluorescence microscope."}, "Human ES cells": {"tested_on": "Human ES cells", "experiment": "Assessment of non-neuronal lineages in directed neural differentiation of human ES cells", "assay_type": "cell-based", "experimental": "Confluent undifferentiated cells were dissociated and seeded at a low density (2.0E5 cells/962 mm2) onto 0.1% w/v gelatin coated wells in differentiation medium alone (DMEM/F-12+GlutaMAX (Invitrogen), 10% Knockout Serum Replacement (KSR) (Invitrogen), Penicillin/Streptomycin (1×) (PAA) for 24 hours prior to media supplementation with an E-cadherin inhibiting peptide (H-Ser-Trp-Glu-Leu-Tyr-Tyr-Pro-Leu-Arg-Ala-Asn-Leu-NH2, >95% purity, acetate salt background) (Bachem) as published in Devemy & Blashuk (2009). Peptide was reconstituted at 30 mg/ml in sterile ddH2O (20 mM stock concentration), with a working concentration 500 μM for inhibition of human E-cadherin. Media (and peptide) were replenished every 2 days for 6-7 days. After this time peptide is no longer necessary. Morphological analysis and immunostaining with markers for neural precursor cells and more mature neural cells were performed during the course of the differentiation protocol.\nCells were fixed in 4% w/v paraformaldehyde and stained in situ (Mohamet et al, 2010). […] The cells were viewed on a Leica DM500 fluorescence microscope. […]"}}, "note": "“Also recorded” adds a separate entry of the source. Where no end group is shown, it is not given here."}
{"molecule": "SRELYYPLRANL [Peptide B, control]", "values": [{"measurement": "culture morphology / cell-cell contacts", "setting": "Human iPS cells (hiPSCs) [1]", "value": "retain the compacted morphology typical of hiPSCs; also recorded: retain the compacted morphology of hiPSCs, without loss of cell-cell contacts"}, {"measurement": "number of Nestin positive cells", "setting": "Human iPS cells (hiPSCs) [2]", "value": 33, "unit": "%"}]}
{"molecule": "E-cadherin neutralising antibody (SHE78.7 clone, Invitrogen 13-5700)", "values": [{"measurement": "loss of cell-cell contact in hiPSCs (phase contrast, 48 h, antibody 2 ug/ml)", "setting": "human E-cadherin", "value": "> 85", "unit": "%"}]}
{"molecule": "SWELYYPL (Inhibitory peptide) [Peptide C]", "values": [{"measurement": "loss of cell-cell contact, proportion of cells", "setting": "Human iPS cells (hiPSCs) [1]", "value": "50-60%"}, {"measurement": "Nestin positive cells, one experiment (variable results)", "setting": "Human iPS cells (hiPSCs) [2]; peptide 1 mM, one experiment only", "value": "approx. 50%"}, {"measurement": "number of Nestin positive cells", "setting": "Human iPS cells (hiPSCs) [2]", "value": 76, "unit": "%"}]}
{"molecule": "SWELYYPLRANL (SWELYYPLRANL-NH2; also: acetate salt) [Peptide A, Study 1 used H-Ser-Trp-Glu-Leu-Tyr-Tyr-Pro-Leu-Arg-Ala-Asn-Leu-NH2 (Bachem, acetate salt background)]", "values": [{"measurement": "undifferentiated colonies (phase contrast)", "setting": "[3]; cultured 6-7 days in media supplemented with peptide", "value": "no undifferentiated colonies were observed"}, {"measurement": "number of Nestin positive cells", "setting": "[3]; media supplemented with peptide 500 μM, 7 days of differentiation, n=3", "value": 95.3, "unit": "%"}, {"measurement": "NESTIN and VIMENTIN expression (immunofluorescence)", "setting": "[3]; peptide 500 μM, harvested at day 7", "value": "homogenous expression"}, {"measurement": "α smooth muscle actin (mesoderm) expression", "setting": "Human ES cells; cells harvested on day 15, n=3", "value": "only detected in 1 cell out of all cultures assessed"}, {"measurement": "staining of endoderm marker Forkhead box protein A2 (foxA2)", "setting": "Human ES cells; differentiated for 15 days", "value": "no positive staining"}, {"measurement": "number of Nestin positive cells", "setting": "Human iPS cells (hiPSCs) [2]", "value": 94, "unit": "%"}]}
{"molecule": "SWELYYPLRANL (not fully specified)", "note": "[Peptide A (SWELYYPLRANL)]", "values": [{"measurement": "loss of cell-cell contact in hiPSCs (phase contrast, 48 h, peptide 1 mM)", "setting": "human E-cadherin", "value": "> 85", "unit": "%"}]}
